Data reported in patent publication US10730889B2, “Amido spirocyclic amide and sulfonamide derivatives” (Forma TM, LLC, priority 2012, dated 2020).

Test system: A2780 cells
Experiment: In-vitro cell proliferation assay (SRB, 72 hours)
Format: cell-based
Conditions: Homo sapiens, A2780, 72 h, A2780 cells, 72 hours, SRB; read-out: Cell Proliferation (IC50)

| SMILES | IC50 [nM] |
| --- | --- |
| CS(=O)(=O)N1CCC(CC(=O)N2CCC3(CC2)CC3CNC(=O)c2cc3ccncc3o2)CC1 (stereo not shown) [Example 142, N-[[6-[2-(1-methylsulfonyl-4-piperidyl)acetyl]-6-azaspiro[2.5]octan-2-yl]methyl]furo[2,3-c]pyridine-2-carboxamide] | 97.1 |
| CN1CCOC(C(=O)N2CCC3(CC2)CC3CNC(=O)c2cc3ccncc3o2)C1 (stereo not shown) [Example 143, N-[[6-(4-methylmorpholine-2-carbonyl)-6-azaspiro[2.5]octan-2-yl]methyl]furo[2,3-c]pyridine-2-carboxamide] | 2000 |
| CC(C)C(=O)N1CC(C(=O)N2CCC3(CC2)CC3CNC(=O)c2cc3ccncc3o2)C1 (stereo not shown) [Example 144, N-[[6-[1-(2-methylpropanoyl)azetidine-3-carbonyl]-6-azaspiro[2.5]octan-2-yl]methyl]furo[2,3-c]pyridine-2-carboxamide] | 375 |
| CC(=O)N1CC(C(=O)N2CCC3(CC2)CC3CNC(=O)c2cc3ccncc3o2)C1 (stereo not shown) [Example 145, N-[[6-(1-acetylazetidine-3-carbonyl)-6-azaspiro[2.5]octan-2-yl]methyl]furo[2,3-c]pyridine-2-carboxamide] | 2000 |
| O=C(NCC1CC12CCN(C(=O)C1CCN(c3cccnn3)C1)CC2)c1cc2ccncc2o1 (stereo not shown) [Example 146, N-[[6-(1-pyridazin-3-ylpyrrolidine-3-carbonyl)-6-azaspiro[2.5]octan-2-yl)methyl]furo[2,3-c]pyridine-2-carboxamide] | 74.5 |
| O=C(NCC1CC12CCN(C(=O)CC1CCN(c3ncccn3)CC1)CC2)c1cc2ccncc2o1 (stereo not shown) [Example 147, N-[[6-[2-(1-pyrimidin-2-yl-4-piperidyl)acetyl]-6-azaspiro[2.5]octan-2-yl]methyl]furo[2,3-c]pyridine-2-carboxamide] | 74.4 |
| CC(C)N1CCC(CC(=O)N2CCC3(CC2)CC3CNC(=O)c2cc3ccncc3o2)CC1 (stereo not shown) [Example 148, N-[[6-[2-(1-isopropyl-4-piperidyl)acetyl]-6-azaspiro[2.5]octan-2-yl]methyl]furo[2,3-c]pyridine-2-carboxamide] | 102 |
| CN1CCC(CC(=O)N2CCC3(CC2)CC3CNC(=O)c2cc3ccncc3o2)CC1 (stereo not shown) [Example 149, N-[(6-[2-(1-methyl-4-piperidyl)acetyl]-6-azaspiro[2.5]octan-2-yl]methyl]furo[2,3-c]pyridine-2-carboxamide] | 496 |
| CC1(CC(=O)N2CCC3(CC2)CC3CNC(=O)c2cc3cnccc3[nH]2)COC1 (stereo not shown) [Example 150, N-([6-[2-(3-methyloxetan-3-yl)acetyl]-6-azaspiro[2.5]octan-1-yl]methyl)-1H-pyrrolo[3,2-c]pyridine-2-carboxamide] | 265 |
| COCCC(=O)N1CCC2(CC1)CC2CNC(=O)c1cc2ccncc2o1 (stereo not shown) [Example 153, N-[[6-(3-methoxypropanoyl)-6-azaspiro[2.5]octan-2-yl]methyl]furo[2,3-c]pyridine-2-carboxamide] | 2000 |
| CC(=O)N(C)CCC(=O)N1CCC2(CC1)CC2CNC(=O)c1cc2ccncc2o1 (stereo not shown) [Example 155, N-[[6-[3-[acetyl(methyl]amino]propanoyl]-6-azaspiro[2.5]octan-2-yl]methyl]furo[2,3-c]pyridine-2-carboxamide] | 2000 |
| O=C(NCC1CC12CCN(C(=O)NC13CC4CC(CC(C4)C1)C3)CC2)c1cc2ccncc2o1 (stereo not shown) [Example 169, N-[[6-(1-adamantylcarbamoyl)-6-azaspiro[2.5]octan-2-yl]methyl]furo[2,3-c]pyridine-2-carboxamide] | 27.8 |
| CC1(O)CC(CC(=O)N2CCC3(CC2)CC3CNC(=O)c2cc3ccncc3o2)C1 (stereo not shown) [Example 174, N-([6-[2-(3-hydroxy-3methylcyclobutyl)acetyl]-6-azaspiro[2.5]octan-1-yl]methyl)furo[2,3-c]pyridine-2-carboxamide] | 197 |
| O=C(Cc1ccccn1)N1CCC2(CC1)CC2CNC(=O)N1Cc2ccncc2C1 (stereo not shown) [Example 176, N-[[6-[2-(2-pyridyl)acetyl]-6-azaspiro[2.5]octan-2-yl]methyl] 1,3-dihydropyrrolo[3,4-c]pyridine-2-carboxamide] | 34.1 |
| O=C(Cc1cccnc1)N1CCC2(CC1)CC2CNC(=O)N1Cc2ccncc2C1 (stereo not shown) [Example 177] | 34.4 |
| N#Cc1cccc(CC(=O)N2CCC3(CC2)CC3CNC(=O)N2Cc3ccncc3C2)c1 (stereo not shown) [Example 178, N-[[6-(2-(3-cyanophenyl)acetyl]-6-azaspiro[2.5]octan-2-yl]methyl]-1,3-dihydropyrrolo(3,4-c]pyridine-2-carboxamide] | 32.3 |
| O=C(NCC1CC12CCN(C(=O)c1ccc(-n3cncn3)cc1)CC2)c1cc2ccncc2o1 (stereo not shown) [Example 179, N-[[6-[4-(1,2,4-triazol-1-yl)benzoyl]-6-azaspiro[2.5]octan-2-yl]methyl]furo[2,3-c]pyridine-2-carboxamide] | 25.4 |
| Cc1nccn1CC(=O)N1CCC2(CC1)CC2CNC(=O)c1cc2ccncc2o1 (stereo not shown) [Example 180, N-[[6-[2-(2-methylimidazol-1-yl)acetyl]-6-azaspiro[2.5]octan-2-yl]methyl]furo[2,3-c]pyridine-2-carboxamide] | 2460 |

Now from value to compound:

| IC50 [nM] | SMILES |
| --- | --- |
| 2000 | O=C(NCC1CC12CCN(C(=O)c1cn[nH]c1)CC2)c1cc2ccncc2o1 (stereo not shown) [Example 141, N-[[6-(1H-pyrazole-4-carbonyl)-6-azaspiro[2.5]octan-2-yl]methyl]furo[2,3-c]pyridine-2-carboxamide] |
| 262 | N#Cc1ccccc1CC(=O)N1CCC2(CC1)CC2CNC(=O)c1cc2ccncc2o1 (stereo not shown) [Example 152, N-[[6-[2-(2-cyanophenyl)acetyl]-6-azaspiro[2.5]octan-2-yl]methyl]furo[2,3-c]pyridine-2-carboxamide] |
| 2610 | O=C(NCC1CC12CCN(C(=O)Cc1ccc(S(=O)(=O)C(F)(F)F)cc1)CC2)c1cc2ccncc2o1 (stereo not shown) [Example 154, N-[[6-[2-[4-(trifluoromethylsulfonyl)phenyl]acetyl]-6-azaspiro[2.5]octan-2-yl]methyl]furo[2,3-c]pyridine-2-carboxamide] |
| 2000 | N#Cc1ccc(NC(=O)N2CCC3(CC2)CC3CNC(=O)c2cc3ccncc3o2)cc1 (stereo not shown) [Example 157, N-[[6-[(4-cyanophenyl)carbamoyl]-6-azaspiro[2.5]octan-2-yl)methyl]furo[2,3-c]pyridine-2-carboxamide] |
| 2000 | Cc1cccc(CNC(=O)N2CCC3(CC2)CC3CNC(=O)c2cc3ccncc3o2)c1 (stereo not shown) [Example 158, N-[[6-(m-tolylmethylcarbamoyl)-6-azaspiro[2.5]octan-2-yl]methyl]furo[2,3-c]pyridine-2-carboxamide] |
| 274 | Cc1ccc(NC(=O)N2CCC3(CC2)CC3CNC(=O)c2cc3ccncc3o2)cc1 (stereo not shown) [Example 159, N-[[6-(p-tolylcarbamoyl)-6-azaspiro[2.5]octan-2-yl]methyl]furo[2,3-c]pyridine-2-carboxamide] |
| 2000 | O=C(NCC1CC12CCN(C(=O)NCc1ccccc1)CC2)c1cc2ccncc2o1 (stereo not shown) [Example 160] |
| 2000 | O=C(NCC1CC12CCN(C(=O)NCc1ccccc1F)CC2)c1cc2ccncc2o1 (stereo not shown) [Example 161, N-[[6-[(2-fluorophenyl)methylcarbamoyl]-6-azaspiro[2.5]octan-2-yl]methyl]furo[2,3-c]pyridine-2-carboxamide] |
| 2000 | Cc1ccc(CNC(=O)N2CCC3(CC2)CC3CNC(=O)c2cc3ccncc3o2)cc1 (stereo not shown) [Example 162, N-[[6-(p-tolylmethylcarbamoyl)-6-azaspiro[2.5]octan-2-yl]methyl]furo[2,3-c]pyridine-2-carboxamide] |
| 2000 | O=C(NCC1CC12CCN(C(=O)NCc1ccc(F)cc1)CC2)c1cc2ccncc2o1 (stereo not shown) [Example 163, N-[[6-[(4-fluorophenyl)methylcarbamoyl]-6-azaspiro[2.5]octan-2-yl]methyl]furo[2,3-c]pyridine-2-carboxamide] |
| 1540 | COc1ccccc1CNC(=O)N1CCC2(CC1)CC2CNC(=O)c1cc2ccncc2o1 (stereo not shown) [Example 164, N-[[6-((2-methoxyphenyl)methylcarbamoyl]-6-azaspiro[2.5]octan-2-yl]methyl]furo[2,3-c]pyridine-2-carboxamide] |
| 2000 | COc1cccc(CNC(=O)N2CCC3(CC2)CC3CNC(=O)c2cc3ccncc3o2)c1 (stereo not shown) [Example 165, N-[[6-[(3-methoxyphenyl)methylcarbamoyl]-6-azaspiro[2.5]octan-2-yl]methyl]furo[2,3-c]pyridine-2-carboxamide] |
| 2000 | O=C(NCC1CC12CCN(C(=O)NCc1cccc(F)c1)CC2)c1cc2ccncc2o1 (stereo not shown) [Example 166, N-[[6-[(3-fluorophenyl)methylcarbamoyl]-6-azaspiro[2.5]octan-2-yl]methyl]furo[2,3-c]pyridine-2-carboxamide] |
| 2000 | COc1ccc(CNC(=O)N2CCC3(CC2)CC3CNC(=O)c2cc3ccncc3o2)cc1 (stereo not shown) [Example 167, N-[[6-[(4-methoxyphenyl)methylcarbamoyl]-6-azaspiro[2.5]octan-2-yl]methyl]furo[2,3-c]pyridine-2-carboxamide] |
| 2000 | O=C(NCC1CC12CCN(C(=O)NCc1ccc(Cl)c(Cl)c1)CC2)c1cc2ccncc2o1 (stereo not shown) [Example 168, N-[[6-[(3,4-dichlorophenyl)methylcarbamoyl]-6-azaspiro[2.5]octan-2-yl]methyl]furo[2,3-c]pyridine-2-carboxamide] |
| 2000 | O=C(NCC1CC12CCN(C(=O)NCc1ccc(Cl)cc1)CC2)c1cc2ccncc2o1 (stereo not shown) [Example 170, N-[[6-[(4-chlorophenyl)methylcarbamoyl]-6-azaspiro[2.5]octan-2-yl]methyl]furo[2,3-c]pyridine-2-carboxamide] |
| 2000 | O=C(NCC1CC12CCN(C(=O)NCc1ccccc1Cl)CC2)c1cc2ccncc2o1 (stereo not shown) [Example 171, N-[[6-[(2-chlorophenyl)methylcarbamoyl]-6-azaspiro[2.5]octan-2-yl]methyl]furo[2,3-c]pyridine-2-carboxamide] |
| 2000 | CCNC(=O)N1CCC2(CC1)CC2CNC(=O)c1cc2ccncc2o1 (stereo not shown) [Example 172, N-[[6-(ethylcarbamoyl)-6-azaspiro[2.5]octan-2-yl)methyl]furo[2,3-c]pyridine-2-carboxamide] |
| 2000 | O=C(NCC1CC12CCN(C(=O)NCc1ccc(Cl)cc1Cl)CC2)c1cc2ccncc2o1 (stereo not shown) [Example 173, N-[(6-[(2,4-dichlorophenyl)methylcarbamoyl]-6-azaspiro[2.5]octan-2-yl]methyl]furo[2,3-c]pyridine-2-carboxamide] |
